Series [1] concerns the target T1, Xanthine dehydrogenase/oxidase (Bos taurus, UniProt P80457). Put plainly: Inhibition of bovine milk xanthine oxidase using xanthine as substrate. The conditions noted are these: read-out: I50.
The target in series [2] is T1, Xanthine dehydrogenase/oxidase. Put plainly: Inhibition of bovine milk xanthine oxidase using xanthine as substrate at 10 times I50 preincubated for 1 hr at 4 degC measured after 10 fold dilution relative to control. Particulars: cattle; call rule not given here.
For series [3] the target is unchanged. Put plainly: Inhibition of bovine milk xanthine oxidase using xanthine as substrate at 10 times I50 preincubated for 20 mins at 25 degC measured after 10 fold dilution relative to control. Particulars: cattle.
Series [4] shares this target. Put plainly: Activity at bovine milk xanthine oxidase assessed as reduction of cytochrome c and phenazine methosulfate. The conditions noted are these: cattle.
For series [5] the target is unchanged. Put plainly: Activity at bovine milk xanthine oxidase assessed as reduction of 2,6-dichlorophenol-indophenol. Particulars: cattle.
For series [6] the target is unchanged. Put plainly: Mixed-type inhibition of bovine milk xanthine oxidase using hypoxanthine as substrate by Lineweaver-Burk plot analysis.
For series [7] the target is unchanged. Put plainly: Mixed-type inhibition of bovine milk xanthine oxidase using xanthine as substrate by Lineweaver-Burk plot analysis.
For series [8] the target is unchanged. Put plainly: Inhibition of bovine milk xanthine oxidase using xanthine as substrate assessed as increase of I50 at pH 6.6 to 7.5. Particulars: cattle.
Series [9] is described as follows: Dissociation constant, pKa of the compound.
Series [10] addresses T1, Xanthine dehydrogenase/oxidase. Put plainly: Inhibition of bovine milk xanthine oxidase using xanthine as substrate assessed as increase of I50 at pH 6.6 to 8.2. Particulars: cattle.
Series [11] has the same target. Put plainly: Inhibition of bovine milk xanthine oxidase using xanthine as substrate assessed as increase of I50 at pH 8.2 to 8.8. The conditions noted are these: cattle.
Series [12] has the same target. Put plainly: Non-competitive inhibition of bovine milk xanthine oxidase using hypoxanthine as substrate by Lineweaver-Burk plot analysis.
Series [13] has the same target. Put plainly: Non-competitive inhibition of bovine milk xanthine oxidase using xanthine as substrate by Lineweaver-Burk plot analysis.
The target is the same in series [14]. Put plainly: Inhibition of bovine milk xanthine oxidase using xanthine as substrate assessed as increase of I50 at pH 6.6 to 7.6. Particulars: cattle.
Series [15] has the same target. Put plainly: Inhibition of bovine milk xanthine oxidase using xanthine as substrate assessed as increase of I50 at pH 7.6 to 7.9. The conditions noted are these: cattle.

T1 sequence (P80457 whole entry): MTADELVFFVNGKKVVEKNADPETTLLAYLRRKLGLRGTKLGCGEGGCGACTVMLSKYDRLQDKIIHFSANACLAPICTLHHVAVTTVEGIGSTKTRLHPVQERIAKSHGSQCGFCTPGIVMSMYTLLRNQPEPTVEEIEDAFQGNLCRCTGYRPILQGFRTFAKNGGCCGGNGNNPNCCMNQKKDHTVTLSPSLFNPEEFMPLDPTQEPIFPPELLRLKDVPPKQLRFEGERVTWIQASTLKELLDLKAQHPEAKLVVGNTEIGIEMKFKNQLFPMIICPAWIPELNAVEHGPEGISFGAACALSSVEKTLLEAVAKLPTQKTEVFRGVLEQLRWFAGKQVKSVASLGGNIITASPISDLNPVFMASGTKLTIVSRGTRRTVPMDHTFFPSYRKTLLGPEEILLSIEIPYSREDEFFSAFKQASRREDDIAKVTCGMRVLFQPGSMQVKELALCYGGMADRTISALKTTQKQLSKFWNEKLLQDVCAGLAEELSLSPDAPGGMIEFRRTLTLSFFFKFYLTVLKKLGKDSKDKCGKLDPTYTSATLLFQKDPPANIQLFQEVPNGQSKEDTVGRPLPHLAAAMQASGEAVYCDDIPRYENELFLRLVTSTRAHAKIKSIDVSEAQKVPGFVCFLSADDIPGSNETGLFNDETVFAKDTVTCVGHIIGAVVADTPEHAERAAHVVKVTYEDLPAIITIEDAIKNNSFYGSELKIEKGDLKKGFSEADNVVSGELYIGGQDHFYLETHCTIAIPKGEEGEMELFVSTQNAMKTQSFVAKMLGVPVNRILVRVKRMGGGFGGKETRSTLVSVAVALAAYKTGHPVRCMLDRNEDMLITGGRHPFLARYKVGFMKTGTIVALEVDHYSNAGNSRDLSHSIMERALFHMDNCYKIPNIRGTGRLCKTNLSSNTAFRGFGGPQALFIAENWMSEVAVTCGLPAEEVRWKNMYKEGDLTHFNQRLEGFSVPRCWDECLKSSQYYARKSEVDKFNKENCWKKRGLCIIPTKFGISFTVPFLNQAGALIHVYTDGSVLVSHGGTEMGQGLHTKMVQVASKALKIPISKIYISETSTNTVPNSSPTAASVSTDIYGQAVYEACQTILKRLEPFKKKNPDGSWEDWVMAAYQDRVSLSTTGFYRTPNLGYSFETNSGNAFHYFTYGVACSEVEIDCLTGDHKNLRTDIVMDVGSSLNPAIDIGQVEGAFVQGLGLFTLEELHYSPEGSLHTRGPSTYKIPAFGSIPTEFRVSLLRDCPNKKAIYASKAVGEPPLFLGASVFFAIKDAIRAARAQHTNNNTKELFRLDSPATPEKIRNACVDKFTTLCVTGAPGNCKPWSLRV

The Ki is a measure of affinity in units of concentration, obtained from inhibition or displacement. A low value points to higher affinity. Consider `Cc1ccc(-c2cnn3c(O)cc(O)nc23)cc1`, for which the IC50 in series [1] came out at 96 nM. In addition, the results for the “inhibition (INH)” value in [2] and in [3] were 55% and 52%, respectively. Further, the Activity entry in series [4] and in [5] was “Not Active” in each case. In addition, the Ki in series [6] was 24 nM; in series [7] it was 17 nM.

What is called pKa is the negative logarithm of the acid dissociation constant. Lower therefore signals a group that gives up its proton readily. For the compound `Oc1ncnc2[nH]ncc12` [ALLOPURINOL], the “inhibition (INH)” value in [2] is recorded as 100%; in series [3] it was 100%; in [8] it was “Active”. Further, the result in series [4] and in series [5] was Active. The compound also gave a pKa in series [9] of 9.

On to `CC(=O)Nc1ccc(-c2cnn3c(O)cc(O)nc23)cc1`, for which the IC50 in series [1] was found to be 89 nM. The “inhibition (INH)” value stood at 47% in [2] and 48% in series [3]. In addition, the Activity entry in [4] and in [5] was “Not Active” in each case. Further, the Ki is 77 nM in series [6] and 85 nM in series [7].

For the compound `Oc1cc(O)n2ncc(-c3ccc(Br)cc3)c2n1`, in [1], the IC50 is 33 nM. Further, the “inhibition (INH)” value in series [2] is 52%; in [3], 53%; in series [10] it was “Active”; in series [11], “Active”. The Activity entry in series [4] and in [5] was “Not Active” throughout. Besides, the Ki was 23 nM in series [6] and 26 nM in series [7]. Besides, the pKa in [9] turned out to be 3.8.

For the compound `Oc1cc(O)n2ncc(Cl)c2n1`, the IC50 in [1] amounted to 1400 nM. Moreover, the “inhibition (INH)” value came out at 45% in series [2] and 44% in series [3]. For the same compound, the Activity entry in series [4] and in series [5] was “Not Active” throughout. Besides, the Ki turned out to be 1800 nM in [12] and 2000 nM in series [13].

As for `O=c1[nH]c(=O)c2[nH]cnc2[nH]1` [XANTHINE], the result in series [4] and in series [5] was Active. The compound also returned a pKa in series [9] of 7.6.

On to `Oc1cc(O)n2ncc(-c3ccc4c(c3)OCO4)c2n1`, for which the IC50 in [1] was 29 nM. Further, the “inhibition (INH)” value in series [2] came to 49%; in series [3] it was 46%. Further, the Activity result in series [4] and in series [5] was “Not Active” in each case. The results for the inhibition constant (Ki) in [6] and in series [7] were 18 nM and 23 nM, respectively.

On to `Oc1cc(O)n2ncc(-c3ccccc3)c2n1`, for which the IC50 in series [1] worked out at 38 nM. Further, the “inhibition (INH)” value in series [2] is 47%; in [3] it was 49%; in series [10], “Active”; in series [11], “Active”. The Activity entry in series [4] and in series [5] was “Not Active” in each case. Also, the Ki in series [12] was 60 nM; in series [13], 53 nM. Further, the pKa in series [9] is 3.8.

For `Cc1cccc(-c2cnn3c(O)cc(O)nc23)c1`, in [1], the IC50 was 25 nM. Also, the entries for the “inhibition (INH)” value in series [2] and in [3] were 50% and 48%, respectively. In addition, the Activity result in series [4] and in series [5] was “Not Active” throughout. Also, the inhibition constant (Ki) in series [6] is 19 nM; in series [7] it was 20 nM.

Turning to `Oc1cc(O)n2ncc(Br)c2n1`, the IC50 in series [1] stood at 1200 nM. Moreover, the “inhibition (INH)” value in series [2] is reported as 50%; in [3], 52%. Further, the Activity entry in series [4] and in series [5] was “Not Active” in each case. Further, the results for the inhibitory constant (Ki) in series [12] and in series [13] were 1200 nM and 1500 nM, respectively.

In the case of `O=c1[nH]cnc2nc[nH]c12` [HYPOXANTHINE], the pKa in series [9] stood at 8.7.

For the compound `Oc1cc(O)n2ncc(-c3ccc(Cl)cc3)c2n1`, the IC50 in series [1] worked out at 43 nM. The “inhibition (INH)” value in series [2] turned out to be 53%; in series [3] it was 50%. Further, the Activity result in [4] and in [5] was “Not Active” each time. The inhibition constant (Ki) in series [6] was 19 nM; in series [7], 23 nM.

Take `Oc1cc(O)n2ncc(-c3cccc4ccccc34)c2n1`: the IC50 in series [1] is 25 nM. The “inhibition (INH)” value in series [2] came out at 46%; in series [3], 45%. The Activity result in [4] and in [5] was “Not Active” in each case. Besides, the Ki amounted to 16 nM in series [12] and 13 nM in series [13].

For the compound `Oc1cc(O)n2nccc2n1`, the IC50 in [1] was determined as 5000 nM. In addition, the “inhibition (INH)” value is recorded as 47% in series [2], 49% in series [3], “Active” in series [14] and “Active” in series [15]. Moreover, the Activity entry in [4] and in series [5] was “Not Active” each time. Further, the Ki in [12] worked out at 4200 nM; in series [13], 5400 nM. In [9], this compound returned a pKa of 3.7.

In the case of `O=[N+]([O-])c1cnn2c(O)cc(O)nc12`, the IC50 in series [1] was 15000 nM. Moreover, the “inhibition (INH)” value in series [2] is 51%; in [3], 53%. Besides, the Activity result in series [4] and in [5] was “Not Active” throughout. Also, the inhibition constant Ki came out at 31000 nM in [6] and 37000 nM in series [7].

For the compound `Oc1cc(O)n2ncc(-c3cccnc3)c2n1`, in series [1], the IC50 worked out at 43 nM. Besides, the “inhibition (INH)” value amounted to 50% in series [2] and 53% in series [3]. The Activity result in series [4] and in series [5] was “Not Active” in each case. The Ki worked out at 31 nM in series [12] and 26 nM in [13].

Values taken from ChEMBL document CHEMBL3272185, “Synthesis and enzymic activity of some novel xanthine oxidase inhibitors. 3-Substituted 5,7-dihydroxypyrazolo(1,5-alpha)pyrimidines” (J Med Chem, 1976).
